# In paper PMC3479139, “Diverse Small Molecule Inhibitors of Human Apurinic/Apyrimidinic Endonuclease APE1 Identified from a Screen of a Large Public Collection” (PLoS ONE, 2012):
# Like-named read-outs stand apart in the source and are kept apart here.
# Columns and labels:
# APE1 [1] = molecular target: T1, APE1 (Homo sapiens, UniProt P27695); test: Fluorescence polarization (FP) displacement assay of APE1 binding to AP-DNA probe; settings: read-out: FP IC50;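 further: TAMRA 5′-labeled duplex DNA with THF abasic site (5 nM) and APE1 (20 nM), Mg2+-free buffer, 15 min at room temperature, inhibition seen as lowered polarization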
# T1 construct: made in house
# E. coli Endo IV = molecular target: T2, E. coli Endo IV (Escherichia coli, UniProt P0A6C1); test: E. coli Endo IV profiling counterscreen; format: biochemical; settings: for IC50: read-out: EndoIV IC50;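 on all read-outs here: selectivity counterscreen of candidate APE1 inhibitors against the bacterial endonuclease Endo IV, run in the same assay format as the primary APE1 high-throughput screen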
# T2 construct: made in house
# Text: In order to screen out nonselective compounds, such as non-specific DNA binders and inhibitors of related enzymes, we used a miniaturized ThO DNA displacement assay and a counterscreen against the bacterial endonuclease E. coli Endo IV, respectively, following the previously published protocols [21].
# To probe the selectivity of the candidate APE1 inhibitors, we tested them against E. coli EndoIV [36], employing the same assay as used in the HTS.
# [2] = molecular target: double-stranded 17-mer DNA fragment; test: ThO (Thiazole Orange) DNA displacement assay; format: binding;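 further: miniaturized displacement of the intercalating dye from unlabeled duplex DNA, used to flag nonspecific DNA binders, chiefly intercalators, groove binders may be missed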
# APE1 [3] = molecular target: T1, APE1; test: Fluorogenic kinetic qHTS APE1 incision assay (primary screen and retest of cherrypicked samples); format: biochemical;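 further: purified APE1 cleaving a fluorophore/dark-quencher labelled 17-mer duplex DNA bearing a tetrahydrofuran AP site, fluorescence rise followed kinetically over the first 2 min, inhibition normalized to controls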
# APE1 [4] = molecular target: T1, APE1; test: Gel-based radiotracer (32P) APE1 incision assay; format: biochemical; parameters: concentration or dose not given beside the values; settings: percent incision shown; entries 1-112;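 further: APE1 incision reactions ran 5 min at 37 °C, with cleaved product and intact substrate resolved electrophoretically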
# [5] = initial quantitative high-throughput screen, read-out: APE1 qHTS IC50
# [6] = retest of cherrypicked sample, read-out: APE1 Retest IC50
# T1 sequence (P27695 whole entry): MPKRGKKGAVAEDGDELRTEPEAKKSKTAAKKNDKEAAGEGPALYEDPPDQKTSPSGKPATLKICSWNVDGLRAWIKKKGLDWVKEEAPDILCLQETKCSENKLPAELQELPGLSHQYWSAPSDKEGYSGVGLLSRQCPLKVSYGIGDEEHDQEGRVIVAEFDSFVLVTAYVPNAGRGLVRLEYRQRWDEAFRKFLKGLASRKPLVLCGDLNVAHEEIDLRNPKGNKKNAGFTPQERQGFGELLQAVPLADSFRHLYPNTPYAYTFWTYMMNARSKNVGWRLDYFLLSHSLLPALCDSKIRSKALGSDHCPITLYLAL
Compound,IC50 (APE1 [1]) [µM],Concentration response against EndoIV (E. coli Endo IV),IC50 ([2]; read-out: ThO dye displacement IC50) [µM],IC50 ([2]; read-out: ThO-DNA binding IC50) [µM],IC50 (APE1 [3]; [5]) [µM],IC50 (APE1 [3]; [6]) [µM],Radiotracer Assay (%Activity) (APE1 [4]) [%],IC50 (E. coli Endo IV) [µM]
phthalocyanine tetrasulfonate hydrate [NCGC00165867],0.2,complete concentration response curves,0.631,0.6,0.3,0.06,6.2,–
O=C(Nc1ccc2nc(-c3ccco3)c(-c3ccco3)nc2c1)N1CCCCCC1 [MLS000050353],12.6,–,–,> 57,3.5,4,41,15.8
Cc1cc(C=O)c(C)n1-c1ccc(Cl)c(C(=O)O)c1 [MLS000676588],> 57,–,–,> 57,5.6,8.9,31,> 57
Cc1ccccc1N=C1NC(=O)/C(=C/c2cccn2-c2cccc(C(=O)O)c2)S1 [MLS000704580],> 57,–,–,> 57,17.8,11.2,7,> 57
N#C/C(=C/c1cccn1-c1cccc(C(=O)O)c1)c1ccc(Cl)cc1 [MLS000621431],> 57,–,–,> 57,11.2,5,44,> 57
Cc1cccc(N2NC(=O)/C(=C/c3ccc(-c4ccc(Cl)c(C(=O)O)c4)o3)C2=O)c1 [MLS000621664],> 57,–,–,> 57,17.8,12.6,32,> 57
O=c1nc(N/N=C/c2ccco2)cn[nH]1 [MLS000685729],> 57,–,–,> 57,–,5,28,> 57
Cc1ccc(NC(=O)CN2C(=O)S/C(=C\c3cccn3-c3cccc(C(=O)O)c3)C2=O)c(C)c1 [MLS000540800],15.8,–,–,> 57,8.9,12.6,0,> 57
CCC(C)C(=O)OCC1(c2ccc(C)cc2OC(=O)C(C)C)CO1 (stereo not shown) [MLS000876981],> 57,–,–,> 57,8.9,11.2,36,> 57
COc1ccc(N2Cc3cccc(C(=O)O)c3C2=O)cc1 [MLS000120697],7.9,–,–,> 57,12.6,3.9,37,> 57
CC1OC(OCC2OC(Oc3c(-c4ccc(O)cc4)oc4cc(O)cc(O)c4c3=O)C(O)C(O)C2O)C(O)C(O)C1O (stereo not shown) [MLS000876823],> 57,–,–,> 57,3.5,3.1,30,> 57
Nc1ccc(Nc2ccccc2)c(S(=O)(=O)O)c1 [MLS000737782],> 57,–,–,> 57,14.1,15.8,9,> 57
O=c1cc(-c2ccc(O)cc2)oc2c(C3OCC(O)C(O)C3O)c(O)c(C3OC(CO)C(O)C(O)C3O)c(O)c12 (stereo not shown) [MLS000876755],> 57,–,–,> 57,19.9,4.5,31,> 57
CSC1=N/C(=C\c2ccc(Br)o2)C(=O)S1 [MLS000534059],> 57,–,–,> 57,–,8.9,36,> 57
Cc1cc(C)c2nc(-c3ccco3)cc(C(=O)O)c2c1 [MLS000703171],> 57,–,–,> 57,7.1,12.6,23,> 57
Nc1ccc2c(c1Cl)C(=O)c1ccc(N)c(Cl)c1C2=O [MLS000737360],7.9,–,–,6.3,8.9,6.3,17,> 57
Cc1ccc2c(=O)c3ccccc3n(CCCN)c2c1C [NCGC00161415],1.3,complete concentration response curves,–,14.1,4.5,10,4.6,–
C[C@@]1(C(=O)O)NCCc2cc(O)c(O)cc21 [NCGC00024700],> 57,–,–,> 57,1.8,–,17.1,> 57
NC(Cc1ccc(O)c(O)c1)C(=O)O (stereo not shown) [NCGC00095195],> 57,–,–,> 57,0.3,0.1,28.3,> 57
